What was measured:
rats = assay: in vivo animal observation after overdose; set-up: species or system rat
clinical subjects = assay: clinical observation of pupil response; details: pupilary dialation was expected
[1] = tested on: muscarinic cholinergic receptor; details: results of pharmacological studies
[2] = detection of radiolabelled compound in saliva; type: in vivo
Description: For example, in the treatment of adult humans, dosages of from about 0.25 to 50 mg, preferably from 1 to 30 mg, and most preferably 1 to 20 mg per day may be used. A once a day dosage is normally sufficient, although divided doses may be administered. For treatment of cognitive dysfunction, a dose range of from 1 to 30 mg, preferably 1 to 20 mg per day is suitable.

Structure (SMILES)	observation in rats exposed to an overdose (rats)	pupil response in clinical subjects (clinical subjects)	muscarinic cholinergic receptor activity [1]	detection in saliva [2]
Cc1cc2c(s1)Nc1ccccc1N=C2N1CCN(C)CC1	significant salivation	pupilary constriction	has muscarinic cholinergic receptor activity	
Cc1cc2c(s1)Nc1ccccc1N=C2N1CCN(C)CC1 [2-methyl-4-(4-methyl-1-piperazinyl)-10H-thieno-[2,3-b][1,5]benzodiazepine]				can be detected in the saliva

From patent US6432943B1, “Method for treating sexual dysfunction” (Eli Lilly and Company, priority 1997, dated 2002)
